According to PMC8550792, “Evolution of kinase polypharmacology across HSP90 drug discovery” (Cell Chemical Biology, 2021):

Assays:
Experiment in all cases: biochemical
Format in all cases: biochemical
[1] = biological target: T1, 382 unique human kinases (Homo sapiens, UniProt Q9Y243, E17K); conditions: AKT3 (E17K), 10 uM; for remaining activity at 10 µM: read-out: % Enzyme Activity (relative to DMSO controls)
T1 construct: purchased Reaction Biology (HotSpot contract assay)

[2] = biological target: T2, 382 unique human kinases (Homo sapiens, UniProt Q9UM73, R1275Q); conditions: ALK (R1275Q), 10 uM; for remaining activity at 10 µM: read-out: % Enzyme Activity (relative to DMSO controls)
T2 construct: purchased Reaction Biology (HotSpot contract assay)

[3] = biological target: T3, 382 unique human kinases (Homo sapiens, UniProt Q9UPE1); conditions: MSSK1/STK23, 10 uM; for remaining activity at 10 µM: read-out: % Enzyme Activity (relative to DMSO controls)
T3 construct: purchased Reaction Biology (HotSpot contract assay)

[4] = biological target: T4, 382 unique human kinases (Homo sapiens, UniProt P08922, G2032R); conditions: ROS1 (G2032R), 10 uM; for remaining activity at 10 µM: read-out: % Enzyme Activity (relative to DMSO controls)
T4 construct: purchased Reaction Biology (HotSpot contract assay)

[5] = biological target: T5, 382 unique human kinases (Homo sapiens, UniProt Q06187, E41K); conditions: BTK (E41K), 10 uM; for remaining activity at 10 µM: read-out: % Enzyme Activity (relative to DMSO controls)
T5 construct: purchased Reaction Biology (HotSpot contract assay)

[6] = biological target: T6, 382 unique human kinases (Homo sapiens, UniProt O60674, V617F); conditions: kinase JAK2 (V617F), compound 10 uM; for remaining activity at 10 µM: read-out: % Enzyme Activity (relative to DMSO controls)
T6 construct: purchased Reaction Biology (HotSpot contract assay)

[7] = biological target: T7, 382 unique human kinases (Homo sapiens, UniProt P36894); conditions: ALK3/BMPR1A, 10 uM; for remaining activity at 10 µM: read-out: % Enzyme Activity (relative to DMSO controls)
T7 construct: purchased Reaction Biology (HotSpot contract assay)

[8] = biological target: T8, 382 unique human kinases (Homo sapiens, UniProt P20794); conditions: kinase MAK, compound 10 uM; for remaining activity at 10 µM: read-out: % Enzyme Activity (relative to DMSO controls)
T8 construct: purchased Reaction Biology (HotSpot contract assay)
T8 sequence (P20794 1-623): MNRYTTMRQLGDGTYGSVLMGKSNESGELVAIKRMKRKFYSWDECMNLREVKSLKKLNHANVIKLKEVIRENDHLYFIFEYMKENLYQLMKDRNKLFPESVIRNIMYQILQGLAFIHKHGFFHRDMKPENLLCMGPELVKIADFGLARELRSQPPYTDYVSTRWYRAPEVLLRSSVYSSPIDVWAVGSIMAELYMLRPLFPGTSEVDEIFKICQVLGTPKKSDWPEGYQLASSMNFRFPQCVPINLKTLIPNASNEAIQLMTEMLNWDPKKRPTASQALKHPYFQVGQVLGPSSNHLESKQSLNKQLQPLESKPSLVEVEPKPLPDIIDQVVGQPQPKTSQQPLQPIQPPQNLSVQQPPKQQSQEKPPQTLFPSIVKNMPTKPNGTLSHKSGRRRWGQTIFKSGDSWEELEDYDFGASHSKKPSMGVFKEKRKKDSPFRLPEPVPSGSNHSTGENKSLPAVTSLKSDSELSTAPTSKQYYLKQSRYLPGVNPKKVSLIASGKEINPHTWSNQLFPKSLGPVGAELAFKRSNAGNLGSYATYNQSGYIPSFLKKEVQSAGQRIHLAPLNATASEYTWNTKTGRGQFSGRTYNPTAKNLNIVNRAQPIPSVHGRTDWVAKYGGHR

[9] = biological target: T9, 382 unique human kinases (Homo sapiens, UniProt P22455, V550M); conditions: FGFR4 (V550M), 10 uM; for remaining activity at 10 µM: read-out: % Enzyme Activity (relative to DMSO controls)
T9 construct: purchased Reaction Biology (HotSpot contract assay)

[10] = biological target: T10, 382 unique human kinases (Homo sapiens, UniProt P49674); conditions: CK1epsilon, 10 uM; for remaining activity at 10 µM: read-out: % Enzyme Activity (relative to DMSO controls)
T10 construct: purchased Reaction Biology (HotSpot contract assay)

[11] = biological target: T11, 382 unique human kinases (Homo sapiens, UniProt Q9H792); conditions: PEAK1, [ATP] 30 µM
T11 construct: purchased Reaction Biology (HotSpot contract assay)

[12] = biological target: T12, 382 unique human kinases (Homo sapiens, UniProt Q9H0K1); conditions: SIK2, [ATP] 30 µM
T12 construct: purchased Reaction Biology (HotSpot contract assay)

[13] = biological target: T13, 382 unique human kinases (Homo sapiens, UniProt Q05513); conditions: PKCzeta, 10 uM; for remaining activity at 10 µM: read-out: % Enzyme Activity (relative to DMSO controls)
T13 construct: purchased Reaction Biology (HotSpot contract assay)
T13 sequence (Q05513 1-592): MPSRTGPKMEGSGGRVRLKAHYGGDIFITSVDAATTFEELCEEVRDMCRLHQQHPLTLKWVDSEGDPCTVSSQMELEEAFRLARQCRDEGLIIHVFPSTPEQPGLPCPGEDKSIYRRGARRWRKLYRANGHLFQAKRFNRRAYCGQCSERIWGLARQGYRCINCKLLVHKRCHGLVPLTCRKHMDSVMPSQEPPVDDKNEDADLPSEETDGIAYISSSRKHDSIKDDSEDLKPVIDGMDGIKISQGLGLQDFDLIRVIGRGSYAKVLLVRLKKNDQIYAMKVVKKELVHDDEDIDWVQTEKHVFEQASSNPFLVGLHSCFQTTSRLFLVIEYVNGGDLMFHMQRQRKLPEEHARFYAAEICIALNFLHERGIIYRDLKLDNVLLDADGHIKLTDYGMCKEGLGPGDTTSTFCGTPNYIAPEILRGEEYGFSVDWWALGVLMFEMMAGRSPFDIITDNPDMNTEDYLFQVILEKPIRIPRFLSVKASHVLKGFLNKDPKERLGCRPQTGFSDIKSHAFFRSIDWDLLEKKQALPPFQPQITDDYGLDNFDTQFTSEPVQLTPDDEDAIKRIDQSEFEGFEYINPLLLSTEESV

[14] = biological target: T14, 382 unique human kinases (Homo sapiens, UniProt P34947); conditions: GRK5, 10 uM; for remaining activity at 10 µM: read-out: % Enzyme Activity (relative to DMSO controls)
T14 construct: purchased Reaction Biology (HotSpot contract assay)

[15] = biological target: T15, 382 unique human kinases (Homo sapiens, UniProt Q15208); conditions: STK38/NDR1, 10 uM; for remaining activity at 10 µM: read-out: % Enzyme Activity (relative to DMSO controls)
T15 construct: purchased Reaction Biology (HotSpot contract assay)

[16] = biological target: T16, 382 unique human kinases (Homo sapiens, UniProt P68400); conditions: CK2a, 10 uM; for remaining activity at 10 µM: read-out: % Enzyme Activity (relative to DMSO controls)
T16 construct: purchased Reaction Biology (HotSpot contract assay)

[17] = compound 10 uM, read-out: % Enzyme Activity (relative to DMSO controls)
[18] = compound 1 uM, read-out: % Enzyme Activity (relative to DMSO controls)

T12 sequence (Q9H0K1 whole entry): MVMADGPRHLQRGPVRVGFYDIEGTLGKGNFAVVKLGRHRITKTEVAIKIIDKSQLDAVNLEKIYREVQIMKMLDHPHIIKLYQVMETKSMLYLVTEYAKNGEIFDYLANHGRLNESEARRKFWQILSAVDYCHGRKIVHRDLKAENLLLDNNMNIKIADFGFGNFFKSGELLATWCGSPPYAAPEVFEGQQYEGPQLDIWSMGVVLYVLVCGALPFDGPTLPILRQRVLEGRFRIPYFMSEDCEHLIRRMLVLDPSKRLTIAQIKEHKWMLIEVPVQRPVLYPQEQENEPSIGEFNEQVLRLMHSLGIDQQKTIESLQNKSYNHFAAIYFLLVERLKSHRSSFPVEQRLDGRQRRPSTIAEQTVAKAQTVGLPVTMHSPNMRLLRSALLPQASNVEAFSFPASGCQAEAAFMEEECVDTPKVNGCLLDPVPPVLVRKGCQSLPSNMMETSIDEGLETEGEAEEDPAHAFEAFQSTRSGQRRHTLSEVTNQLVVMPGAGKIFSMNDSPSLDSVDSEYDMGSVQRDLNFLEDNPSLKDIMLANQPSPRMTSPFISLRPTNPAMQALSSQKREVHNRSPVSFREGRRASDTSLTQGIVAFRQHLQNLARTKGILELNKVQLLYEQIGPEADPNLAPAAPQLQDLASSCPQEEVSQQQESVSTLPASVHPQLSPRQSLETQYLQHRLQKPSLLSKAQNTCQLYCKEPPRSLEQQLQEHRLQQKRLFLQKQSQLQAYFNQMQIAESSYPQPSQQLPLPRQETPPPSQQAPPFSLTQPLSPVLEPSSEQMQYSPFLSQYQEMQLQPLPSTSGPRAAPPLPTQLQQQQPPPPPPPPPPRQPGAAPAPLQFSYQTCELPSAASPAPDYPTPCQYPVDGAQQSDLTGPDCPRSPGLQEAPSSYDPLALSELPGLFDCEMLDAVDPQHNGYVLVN
T5 sequence (Q06187 whole entry E41K): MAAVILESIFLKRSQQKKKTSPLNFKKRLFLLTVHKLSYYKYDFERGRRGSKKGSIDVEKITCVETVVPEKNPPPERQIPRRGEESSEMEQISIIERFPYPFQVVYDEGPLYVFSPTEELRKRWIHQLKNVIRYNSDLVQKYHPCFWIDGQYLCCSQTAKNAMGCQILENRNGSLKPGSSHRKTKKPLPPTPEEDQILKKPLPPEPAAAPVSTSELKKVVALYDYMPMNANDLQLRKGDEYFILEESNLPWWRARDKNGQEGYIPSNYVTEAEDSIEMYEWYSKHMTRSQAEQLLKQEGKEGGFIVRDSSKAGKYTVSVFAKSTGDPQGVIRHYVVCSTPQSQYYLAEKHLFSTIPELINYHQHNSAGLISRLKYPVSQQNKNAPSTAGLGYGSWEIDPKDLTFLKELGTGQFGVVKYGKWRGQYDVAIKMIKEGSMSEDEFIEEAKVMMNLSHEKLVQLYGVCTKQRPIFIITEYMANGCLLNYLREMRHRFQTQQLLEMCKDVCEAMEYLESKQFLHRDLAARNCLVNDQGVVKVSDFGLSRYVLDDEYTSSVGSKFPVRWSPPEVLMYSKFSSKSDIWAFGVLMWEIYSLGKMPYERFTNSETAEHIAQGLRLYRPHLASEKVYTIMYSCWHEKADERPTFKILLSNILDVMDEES
T4 sequence (P08922 28-2347 G2032R): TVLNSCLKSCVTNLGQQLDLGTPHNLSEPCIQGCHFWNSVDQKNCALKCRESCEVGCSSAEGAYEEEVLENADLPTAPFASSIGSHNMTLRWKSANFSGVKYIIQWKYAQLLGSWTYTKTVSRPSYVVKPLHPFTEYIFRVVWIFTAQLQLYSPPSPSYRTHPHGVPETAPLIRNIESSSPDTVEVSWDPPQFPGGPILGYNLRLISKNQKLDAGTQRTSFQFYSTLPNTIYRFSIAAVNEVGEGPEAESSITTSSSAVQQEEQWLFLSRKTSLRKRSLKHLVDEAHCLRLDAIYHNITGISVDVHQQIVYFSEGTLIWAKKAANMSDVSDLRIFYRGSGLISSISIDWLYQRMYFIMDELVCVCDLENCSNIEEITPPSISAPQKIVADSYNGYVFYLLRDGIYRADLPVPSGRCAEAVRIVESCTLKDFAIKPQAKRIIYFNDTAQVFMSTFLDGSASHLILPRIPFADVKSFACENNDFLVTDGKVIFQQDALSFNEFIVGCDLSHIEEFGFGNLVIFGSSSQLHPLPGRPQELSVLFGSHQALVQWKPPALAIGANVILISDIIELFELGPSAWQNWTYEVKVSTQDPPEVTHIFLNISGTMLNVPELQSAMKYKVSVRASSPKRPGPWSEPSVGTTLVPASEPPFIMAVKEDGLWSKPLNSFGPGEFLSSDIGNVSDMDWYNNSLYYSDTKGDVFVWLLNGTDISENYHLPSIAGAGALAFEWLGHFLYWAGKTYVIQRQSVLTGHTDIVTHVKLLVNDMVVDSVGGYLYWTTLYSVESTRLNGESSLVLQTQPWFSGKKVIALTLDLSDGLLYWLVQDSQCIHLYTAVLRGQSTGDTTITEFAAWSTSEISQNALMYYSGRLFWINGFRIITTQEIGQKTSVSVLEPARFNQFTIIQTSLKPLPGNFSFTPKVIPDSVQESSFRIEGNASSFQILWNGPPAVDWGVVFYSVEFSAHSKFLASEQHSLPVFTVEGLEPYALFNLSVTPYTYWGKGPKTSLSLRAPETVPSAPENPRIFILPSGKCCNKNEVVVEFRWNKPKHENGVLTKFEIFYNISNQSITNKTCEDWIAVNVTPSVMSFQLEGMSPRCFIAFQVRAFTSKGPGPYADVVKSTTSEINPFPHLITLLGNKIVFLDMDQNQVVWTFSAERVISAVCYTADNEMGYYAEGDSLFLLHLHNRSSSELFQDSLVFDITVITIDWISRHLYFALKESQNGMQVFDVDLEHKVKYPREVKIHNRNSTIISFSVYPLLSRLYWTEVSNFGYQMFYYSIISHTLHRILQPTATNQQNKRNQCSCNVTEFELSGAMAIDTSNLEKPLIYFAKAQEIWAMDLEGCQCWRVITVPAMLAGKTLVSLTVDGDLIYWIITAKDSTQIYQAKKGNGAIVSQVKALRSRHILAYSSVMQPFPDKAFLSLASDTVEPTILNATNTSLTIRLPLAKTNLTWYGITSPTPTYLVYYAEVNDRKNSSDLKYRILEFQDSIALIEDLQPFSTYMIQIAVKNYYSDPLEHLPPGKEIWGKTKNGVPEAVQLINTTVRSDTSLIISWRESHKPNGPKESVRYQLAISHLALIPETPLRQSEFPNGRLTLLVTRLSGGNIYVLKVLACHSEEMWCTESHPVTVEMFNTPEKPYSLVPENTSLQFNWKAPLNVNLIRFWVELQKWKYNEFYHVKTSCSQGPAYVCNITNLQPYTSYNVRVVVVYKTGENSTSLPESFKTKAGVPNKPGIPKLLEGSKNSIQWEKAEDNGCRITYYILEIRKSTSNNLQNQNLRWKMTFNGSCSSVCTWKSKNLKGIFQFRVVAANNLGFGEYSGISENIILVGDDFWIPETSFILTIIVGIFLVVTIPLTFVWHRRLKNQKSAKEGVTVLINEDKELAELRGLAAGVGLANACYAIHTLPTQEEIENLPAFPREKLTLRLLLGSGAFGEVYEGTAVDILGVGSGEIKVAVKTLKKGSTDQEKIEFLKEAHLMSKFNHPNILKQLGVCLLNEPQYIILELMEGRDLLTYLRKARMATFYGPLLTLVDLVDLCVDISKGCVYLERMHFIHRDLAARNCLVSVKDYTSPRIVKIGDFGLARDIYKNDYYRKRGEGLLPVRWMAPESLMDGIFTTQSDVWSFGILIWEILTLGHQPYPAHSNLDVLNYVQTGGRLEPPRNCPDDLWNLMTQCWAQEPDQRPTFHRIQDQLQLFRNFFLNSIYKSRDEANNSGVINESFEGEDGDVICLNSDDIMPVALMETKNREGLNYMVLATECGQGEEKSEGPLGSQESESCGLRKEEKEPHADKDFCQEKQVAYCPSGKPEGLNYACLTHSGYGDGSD
T15 sequence (Q15208 whole entry): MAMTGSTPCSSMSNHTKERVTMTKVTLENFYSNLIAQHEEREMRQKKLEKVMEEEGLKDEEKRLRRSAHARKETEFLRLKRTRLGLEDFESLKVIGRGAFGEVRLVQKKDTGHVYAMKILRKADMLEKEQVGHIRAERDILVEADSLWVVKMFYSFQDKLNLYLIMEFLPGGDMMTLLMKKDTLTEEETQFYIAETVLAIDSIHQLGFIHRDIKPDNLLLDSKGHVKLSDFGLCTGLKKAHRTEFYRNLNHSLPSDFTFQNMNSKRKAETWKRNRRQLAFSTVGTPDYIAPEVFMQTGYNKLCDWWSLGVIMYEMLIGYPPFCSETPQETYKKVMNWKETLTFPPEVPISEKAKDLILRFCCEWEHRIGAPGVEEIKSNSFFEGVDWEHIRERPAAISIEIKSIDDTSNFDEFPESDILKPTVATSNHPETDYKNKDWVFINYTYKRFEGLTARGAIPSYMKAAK
T16 sequence (P68400 whole entry): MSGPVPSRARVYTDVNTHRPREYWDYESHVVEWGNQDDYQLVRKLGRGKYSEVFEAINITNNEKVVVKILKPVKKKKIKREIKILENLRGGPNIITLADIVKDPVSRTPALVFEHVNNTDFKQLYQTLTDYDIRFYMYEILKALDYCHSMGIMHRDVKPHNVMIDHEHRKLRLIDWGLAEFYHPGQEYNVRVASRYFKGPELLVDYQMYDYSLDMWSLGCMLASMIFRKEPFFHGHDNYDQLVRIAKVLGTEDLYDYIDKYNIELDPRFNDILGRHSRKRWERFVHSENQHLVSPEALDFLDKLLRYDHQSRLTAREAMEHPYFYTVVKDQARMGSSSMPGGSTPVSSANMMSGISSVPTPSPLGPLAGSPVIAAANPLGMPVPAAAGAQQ

Row | Compound | remaining activity at 10 µM [1] | remaining activity at 10 µM [2] | remaining activity at 10 µM [3] | remaining activity at 10 µM [4] | remaining activity at 10 µM [5] | remaining activity at 10 µM [6] | remaining activity at 10 µM [7] | remaining activity at 10 µM [8] | remaining activity at 10 µM [9] | remaining activity at 10 µM [10] | remaining activity at 10 µM [11, 17] | remaining activity at 10 µM [12, 17] | remaining activity at 10 µM [13] | remaining activity at 10 µM [14] | remaining activity at 10 µM [15] | remaining activity at 10 µM [16] | also measured
1 | CC(C)c1cc(-c2n[nH]c(=O)n2-c2ccc3c(ccn3C)c2)c(O)cc1O [Ganetespib (STA9090)] | 77.7% | 65.1% | 73.6% | 66.8% | 65.4% | 83.1% | 59.1% | 86.4% | 85.2% | 73.4% | – | – | – | – | – | – | –
2 | CCNC(=O)c1noc(-c2cc(C(C)C)c(O)cc2O)c1-c1ccc(CN2CCOCC2)cc1 [Luminespib] | – | – | – | – | – | – | – | – | – | – | 30.1% | 81.2% | 102% | 102% | 99% | 117% | % Enzyme Activity (relative to DMSO controls) ([11]; compound 10 uM): 29.19%; % Enzyme Activity (relative to DMSO controls) ([12]; compound 10 uM): 80.93%; % Enzyme Activity (relative to DMSO controls) [13]: 101.96%; % Enzyme Activity (relative to DMSO controls) [14]: 101.05%; % Enzyme Activity (relative to DMSO controls) [15]: 98.10%; % Enzyme Activity (relative to DMSO controls) [16]: 112.96%
3 | CCNC(=O)c1noc(-c2cc(C(C)C)c(O)cc2O)c1-c1ccc(CN2CCOCC2)cc1 [Luminespib (AUY-922)] | 84.2% | 102% | 95.8% | 109% | 96.8% | 91.7% | 100% | 94.7% | 72.2% | 105% | – | – | – | – | – | – | % Enzyme Activity (relative to DMSO controls) [1]: 79.36%; % Enzyme Activity (relative to DMSO controls) [2]: 101.49%; % Enzyme Activity (relative to DMSO controls) [3]: 95.48%; % Enzyme Activity (relative to DMSO controls) [4]: 106.59%; % Enzyme Activity (relative to DMSO controls) [5]: 96.25%; % Enzyme Activity (relative to DMSO controls) [6]: 91.38%; % Enzyme Activity (relative to DMSO controls) [7]: 99.39%; % Enzyme Activity (relative to DMSO controls) [8]: 94.57%; % Enzyme Activity (relative to DMSO controls) [9]: 64.75%; % Enzyme Activity (relative to DMSO controls) [10]: 103.86%
4 | CC(C)c1cc(-c2n[nH]c(=O)n2-c2ccc3c(ccn3C)c2)c(O)cc1O [Ganetespib] | – | – | – | – | – | – | – | – | – | – | 10.2% | 4.64% | 92.3% | 96% | 95.7% | 101% | remaining activity at 1 µM [11, 18]: 43.5%; remaining activity at 1 µM [12, 18]: 70.2%
